The test system of data set [1] is DBF mice. As to conditions: in vivo, po.
Excerpt: The Mouse Hypercalcemia Assay
(§1) The Mouse Hypercalcemia Assay is a six day hypercalcemia test for toxicity and selectivity.
(§2) (4) Materials and Method for the Mouse Hypercalcemia Assay:
(§3) Weanling, virus-antibody-free, five to six weeks old female DBF mice (Harlan, Indianapolis, Ind.) are used for all the studies. Animals are allowed to acclimate to local vivarium conditions for 2 days. […] The animals then are divided into groups with 4-5 mice per group. Different doses of test compounds prepared in 10% Ethanol and 90% sesame oil are administered to mice orally via gavage for 6 days. 1α-25(OH)2D3 0.5 μg/kg/d was also given to one group of mice as the positive control. […] Raw data of group differences is assessed by analysis of variance (ANOVA) using Fisher's protected least significant difference (PLSD) where the significance level was P<0.05.
A further data set has as its system rat osteocalcin promoter. As to the kind of experiment: OCN (osteocalcin) promoter assay. In kind it is cell-based. To be noted: RG-15 (ROS 17/2.8) cells, 48 hr treatment, Table 1. Here is the method:
3. The OCN (Osteocalcin) Promoter Assay
The OCN Promoter Assay is an indicator and marker for osteoporosis. […] Preferred assay results are less than 50 nM.
(3) Materials and Method for the OCN Promoter Assay:
The activation of osteocalcin by VDR ligands was evaluated in a rat osteoblast-like cell line RG-15 (ROS 17/2.8) stably expressing rat osteocalcin promoter fused with luciferase reporter gene. […] Confluent RG-15 cells maintained in DMEM/F-12 medium (3:1) containing 5% FBS, 300 μg/ml G418 and at 37° C. under 5% CO2/95% air atmosphere were trypsinized (0.25% trypsin) and plated into white opaque 96-well cell culture plates (25000 cells/well). After 24 hr, cells (in DMEM/F-12 medium+2% FBS) were treated with various concentrations of compounds, dissolved in DMSO. The final DMSO concentration remained at 0.01% (v/v). After 48 hr treatment, the medium was removed, cells were lysed with 50 μl of lysis buffer (From Luciferase reporter assay system, Roche Diagnostics, Indianapolis, Ind.) and assayed for luciferase activity using the Luciferase Reporter Gene Assay kit from Boehringer Mannheim as per manufacturer's specifications.

Another data set has as its target T1, VDR (Homo sapiens, UniProt P11473).
T1 construct: the receptor expression vector pGal4-VDR-LBD (10 ng); expressed in transfected cells; host or cells: Caco-2 cells
T1 sequence (P11473 127-423 limits assumed): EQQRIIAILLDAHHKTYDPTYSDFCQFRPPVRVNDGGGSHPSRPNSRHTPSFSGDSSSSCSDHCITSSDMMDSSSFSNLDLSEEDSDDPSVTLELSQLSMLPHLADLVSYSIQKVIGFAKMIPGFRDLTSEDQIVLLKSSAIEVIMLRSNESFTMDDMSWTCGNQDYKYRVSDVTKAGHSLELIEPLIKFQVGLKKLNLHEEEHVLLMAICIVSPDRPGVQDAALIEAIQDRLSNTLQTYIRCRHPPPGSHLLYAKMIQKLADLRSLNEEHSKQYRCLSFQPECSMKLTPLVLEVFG
As to the kind of experiment: Caco-2 cell co-transfection assay (VDR CTF). The class given is cell-based. As to conditions: Caco-2 cells, pGal4-VDR-LBD luciferase co-transfection; Table 1. Here is the method:
2. The Caco-2 Cell Co-Transfection Assay:
The Caco-2 cell assay is an indicator for the undesirable condition of hypercalcemia. This co-transfection assay is a surrogate assay for in vivo calcemic activity of VDR ligands. […] Preferred assay results are greater than 1000 nM.
(2) Materials and Method for The Caco-2 Cell Assay:
Caco-2 cells, grown in phenol red free, DMEM (Invitrogen, Carlsbad, Calif.) containing 10% charcoal-stripped FCS (Hyclone, Logan, Utah), were transfected with Fugene 6 reagent (Roche Diagnostics, Indianapolis, Ind.). Cells (5000/well) were plated 18 h before transfection in a 96 well plate. The Cells were transfected with Gal4-responsive reporter pFRLuc (150 ng, Stratagene, La Jolla Calif.) and the receptor expression vector pGal4-VDR-LBD (10 ng), along with Fugene 6 reagent (0.2 μl/well). The DNA-Fugene complex was formed by incubating the mixture for 30 min at room temperature. The cells were transfected in triplicate for 5 h, and treated with various concentrations of VDR ligands (form 0.01 nM to 10,000 nM concentration range) 18 h post-transfection. The luciferase activity was quantified using Steady-Glo reagent kit (Promega, Madison, Wis.) as per manufacturer's specifications.

Another data set concerns the target T2, RXR-VDR heterodimer (Homo sapiens, UniProt P11473).
T2 construct: Add the Gal4-RXR-DEF and VP16-VDR-LBD; expressed in transfected cells; host or cells: SaOS-2 cells
T2 sequence (P11473 127-423 limits assumed): T1 sequence (P11473 127-423 limits assumed)
T2 sequence (P19793 201-462 partner limits assumed): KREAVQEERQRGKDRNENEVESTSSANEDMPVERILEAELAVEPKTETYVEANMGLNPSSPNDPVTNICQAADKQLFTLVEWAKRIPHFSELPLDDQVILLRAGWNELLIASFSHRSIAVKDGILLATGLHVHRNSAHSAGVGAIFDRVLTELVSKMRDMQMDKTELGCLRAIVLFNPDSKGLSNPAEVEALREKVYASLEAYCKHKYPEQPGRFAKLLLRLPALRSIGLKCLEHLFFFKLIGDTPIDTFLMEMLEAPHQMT
Nature of the data set: RXR-VDR heterodimerization assay (SaOS-2 cells). The class given is cell-based. As to conditions: Gal4-RXR / VP16-VDR-LBD luciferase reporter, Table 1. Here is the method: 1. The RXR-VDR HeterodimerAssay:
This assay provides the VDR activity of a test compound.
(1) Materials and Method for RXR-VDR Heterodimerization Assay:
Luciferase Assay Reagent: • Use Steady-Glo Luciferase Reagent from Promega (Cat #E2550) Consists of: a. E2533 Assay Substrate, lyopholized product and b. E2543 Assay Buffer. • Thaw at room temperature • Store Cell Harvesting Aspirate media from culture flask, rinse cells with HBSS and aspirate. Add trypsin and incubate. When cells appear detached, resuspend cells in growth media. Transfer into a new flask with fresh growth media for passaging the cells. Plate well plates and two extra plates A. Cell Count Mix the cell suspension using pipette Use Hematocytometer to count the cells Load cell suspension onto the hemocytometer chamber Count cells. […] In sterile flask add cell suspension to plating media. Mix. Add cells/well. Place the cells in the incubator. Cells should be about 75% confluent prior to transfection. DAY 2: Transfection Step 1: DNA and Media Add plain DMEM media to tubes for mixing the DNA Add the Reporter gene pFR-LUC Add the Gal4-RXR-DEF and VP16-VDR-LBD Step 2: FuGENE and Media Prepare plain DMEM media in a ubes for mixing FuGENE Add FuGENE 6 Transfection Reagent Incubate Step 3: FuGENE, DNA and Media Complex Add FuGENE Media complex from step 2 to DNA Media complex from step 1 Incubate Step 4: FuGENE, DNA and Media Complex to-well plate Add FuGENE-DNA-Media complex from step 3 to each plate Incubate. […] Day 4: Luciferase Assay Read the plates after drug treatment Remove part of media from all the wells and leave remainder Add Steady-Glo Luciferase Reagent mixture/wells Incubate Count each well using a Luminescence counter, Top Count NXT by Packard
Set a delay between plates to reduce the background.
(In a reporter assay the amount or activity of a reporter protein is the signal.)

The next data set concerns KERtr cells. As to the kind of experiment: Keratinocyte proliferation assay. The class given is cell-based. As to conditions: Homo sapiens, 72 h, BrdU incorporation, Table 2, read-out: Kera. Prolif. IC50. Here is the method:
5. The Keratinocyte Proliferation Assay
This Assay is indicative for the treatment of psoriasis.
(5) The Keratinocyte Proliferation Assay:
KERtr cells (Human skin keratinocyte transformed with a retrovirus vector, obtained from ATCC) were plated in 96-well flat-bottomed plates (3000 cells/well) in 100 μl keratinocyte serum free medium supplemented with bovine pituitary extract in the absence of EGF (Life Technologies, Rockville, Md.) and incubated at 37° C. for two days. The cells were treated with various concentrations of VDR ligands (ten-fold serial dilution from 10,000 nM to 0.1 nM in triplicate), dissolved in 100 μl keratinocyte serum free medium supplemented with bovine pituitary extract in the absence of EGF and incubated at 37° C. for 72 hr. […] Potency values (IC50) values were determined as the concentration (nM) of compound that elicited a half-maximal response.
(Dividing cells build labelled thymidine or BrdU into new DNA.)

Data set [2] deals with DBF mice. Nature of the data set: Mouse hypercalcemia assay. To be noted: oral gavage for 6 days, serum ionized calcium 6 hours after last dosing; Table 1.
Excerpt: The Mouse Hypercalcemia Assay
as §1, §2, §3
Another data set relates to IL-10. As to the kind of experiment: Human IL-10 induction assay in PBMCs. In kind it is cell-based. To be noted: PBMC; TPA/PHA treated human PBMCs; Table 2. The text has this:
6. The IL-10 Induction Assay
This is an in vitro efficacy assay for psoriasis, abscess and adhesion. Psoriasis involves both keratinocytes and immune cells. IL-10 is a unique cytokine because it is anti-inflammatory and immunosuppressive. This assay tells us whether a VDRM is able to function as an agonist in PBMCs ([…]) or not.
(6) Materials and Method for Human IL-10 Induction Assay:
Isolation of Peripheral Blood Mononuclear Cells (PBMCs):
Stimulation of PBMC: • L. Prepare TPA in DMSO. • M. Dissolve PHA in water. • N. Plate TPA/PHA treated PBMCs in well plates. • O. Incubate.
Sample Collection and Assay: • S. Remove all the cells by centrifugation and assay the supernatant for IL-10 by immunoassay. • T. Perform IL-10 assay using anti-human IL-10 antibody coated beads, as described by the manufacturer (Linco Research Inc., St. Charles, Mo.). (8) CaT1 Assay

Structures are written as SMILES. Where “and” joins values, the source holds several entries; their conditions need not be identical. Equal values may be shown once. Read-outs that look alike come from different tables or passages of the source.

The source of these data is US7897789B2, “Vitamin D receptor modulators” (Eli Lilly and Company, priority 2003, dated 2011).

Broadly, the EC50 is the concentration needed to bring the measured effect to its halfway point. In general, IC50 refers to the concentration needed to halve the response being measured.

In the case of `C=C1/C(=C\C=C2/CCC[C@]3(C)[C@@H]([C@H](C)CCCC(C)(C)O)CC[C@@H]23)C[C@@H](O)C[C@@H]1O` [AA, 1α,25-dihydroxyvitamin D3], in the data set on DBF mice [1], the “Mouse Hypercal” value was 0.06 µg/kg/day.
Regarding `CCC(CC)(c1ccc(OCC(=O)C(C)(C)C)c(C)c1)c1cc2cc(C(=O)NCC(=O)O)ccc2s1` [Ex 19, [(2-{1-[4-(3,3-Dimethyl-2-oxo-butoxy)-3-methyl-phenyl]-1-ethyl-propyl}-benzo[b]thiophene-5-carbonyl)-amino]-acetic acid], the EC50 was 4.7 nM with rat osteocalcin promoter (Rattus norvegicus, 48 h); 815 nM on VDR; 114 nM and 21 nM at RXR-VDR heterodimer. Further, the values for the half-maximal inhibitory concentration (IC50) in the data set with KERtr cells and in the data set on IL-10 were 16 nM and 149 nM, respectively. Moreover, the “Mouse Hypercal” value in the data set on DBF mice [2] was >300 µg/kg/day.
Regarding `CCC(CC)(c1ccc(OCC(=O)C(C)(C)C)c(C)c1)c1ccc2cc(C(=O)O)sc2c1` [Ex. 1, 6-{1-[4-(3,3-dimethyl-2-oxo-butoxy)-3-methyl-phenyl]-1-ethyl-propyl}-benzo[b]thiophene-2-carboxylic acid], the EC50 in the data set on rat osteocalcin promoter was 1 nM; in the data set with rat osteocalcin promoter (Rattus norvegicus, 48 h), 2 nM; at VDR, 432 nM. In addition, in the data set on DBF mice [2], the “Mouse Hypercal” value was <300 µg/kg/day. In addition, the IC50 in the data set with IL-10 stood at 109 nM.
In the case of `CCC(CC)(c1ccc(OCC(O)C(C)(C)C)c(C)c1)c1ccc2cc(C(=O)O)sc2c1` (stereo not shown) [Ex. 2, 6-{1-ethyl-1-[4-(2-hydroxy-3,3-dimethyl-butoxy)-3-methyl-phenyl]-propyl}-benzo[b]thiophene-2-carboxylic acid], the EC50 with rat osteocalcin promoter (Rattus norvegicus, 48 h) turned out to be 1 nM; on VDR, 411 nM; on RXR-VDR heterodimer it was 30 nM. The IC50 was found to be 1 nM with KERtr cells and 24 nM with IL-10.
As for `CCC(CC)(c1ccc(OCC(=O)C(C)(C)C)c(C)c1)c1ccc2cc(C(=O)NCC(=O)O)sc2c1` [Ex. 5, [(6-{1-[4-(3,3-dimethyl-2-oxo-butoxy)-3-methyl-phenyl]-1-ethyl-propyl}-benzo[b]thiophene-2-carbonyl)-amino]-acetic acid], the EC50 amounted to 1 nM in the data set with rat osteocalcin promoter (Rattus norvegicus, 48 h) and 342 nM on VDR. Also, the results for the IC50 with KERtr cells and with IL-10 were 4 nM and 6 nM, respectively. In the data set with DBF mice [2], the “Mouse Hypercal” value was >300 µg/kg/day.
For the compound `CCC(CC)(c1ccc(OCC(=O)C(C)(C)C)c(C)c1)c1cc2ccc(C(=O)NCC(=O)O)cc2s1` [Ex. 11, [(2-{1-[4-(3,3-dimethyl-2-oxo-butoxy)-3-methyl-phenyl]-1-ethyl-propyl}-benzo[b]thiophene-6-carbonyl)-amino]-acetic acid], the EC50 in the data set with rat osteocalcin promoter (Rattus norvegicus, 48 h) was determined as 0.2 nM; on VDR, 299 nM; at RXR-VDR heterodimer, 45 nM. The values for the IC50 in the data set on KERtr cells and in the data set on IL-10 were 2 nM and 10 nM, respectively. Besides, in the data set with DBF mice [2], the “Mouse Hypercal” value was >300 µg/kg/day.
